According to publication PMC9935382, “Sorting nexin-dependent therapeutic targeting of oncogenic epidermal growth factor receptor” (Cancer Gene Therapy, 2022):
“Also recorded” adds a separate entry of the source.

Columns and labels:
[1] = tested on: MDA-MB-468 cells; assay type: cell-based; conditions: 3 days, MTT
Experimental: (§1) 2 × 10^3 cells were plated per well in a 96 well plate and left to adhere overnight. The following day, drug treatments were started and continued for 3 days. To measure the viability of the remaining cell population, 10% 3-(4,5-dimethylthiazol-2-yl)-2,5-diphenyltetrazolium (MTT) in media was added and incubated for 2 hours and conversion of MTT to formazan at 540 nm using a biotech Synergy LX plate reader.
A Peptide sequence alignment of modified and stabilized peptides (−) indicates conserved residues, (/) indicates a deleted residue. Modified residues used for staples are (S)-2-(((9H-flouren-9-yl) methoxy) caronylamino)-2-methyl-hept-6-enoic acid and (R)-2-(((9H-flouren-9-yl) methoxy) caronylamino)-2-methyl-dec-9-enoic acid. PTD4 = Protein Transduction Domain. Ac = acetylation of […] and NH2 = amidation of […]. B MDA-MB-468 cells were treated with 10 μM of the indicated peptide for 3 days. Cell viability was measured using an MTT assay. Vehicle control represents 100%. C. A predicted peptide structure of SNX1.3 was generated using SWISSMODEL with negative (blue) and positive (red) residues highlighted.
A–G Cells were plated in a 96-well plate at 2000 cells per well. […] Cell viability was then measured with an MTT assay, viability of treated cells were compared with the vehicle control. […]

[2] = tested on: BT20 cells; assay type: cell-based; conditions: 3 days, MTT
Experimental: as §1
A–G Cells were plated in a 96-well plate at 2000 cells per well. […] Cell viability was then measured with an MTT assay, viability of treated cells were compared with the vehicle control. H MDA-MB-468 cells were plated and incubated+/− IPTG for 2 days prior to drug treatment to induce expression of an EGFR-targeted shRNA.
Supplementary Figure 1. A. BT20 triple negative breast cancer cells were treated with SNX1.1, 1.2, or 1.3 for 3 days and their viability was measured via MTT analysis. B. CHO cells were treated with PTD4 or SNX1.3 for 3 days and their viability was measured via MTT analysis.

[3] = biological target: T1, EGFR kinase domain (residues 672–998) (Homo sapiens, UniProt P00533); test: Microscale thermophoresis (MST) binding to EGFRkin; conditions: direct binding, MST / BLI
T1 construct: baculovirus insect cell expression system (residues 672–998 with N-terminal His-tag followed by TEV cleavage site); made in house; host or cells: Sf9 insect cells (Bac-to-Bac baculovirus, pFastBacHT)
Experimental: Briefly pFastBacHT plasmid containing the cDNA of EGFR kinase domain with N-terminal His-tag was transformed into DH10Bac E. coli to generate bacmid DNA. P1 virus was generated by transfecting 2.0 mL of sf9 cells at 1.0 million cells/ml density with the purified bacmid DNA (200–3000 ng/μL). The P1 virus was harvested after 5–7 days following transfection. The P1 virus was diluted 100-fold into an sf9 cell culture at a density of 2.0 million cells/ml and cultured for 3 days. Supernatant containing the P2 virus was collected by centrifugation and diluted 40-fold into 1.0 L of sf9 cells at a density of 2.0 million cells/ml. After 2.5–3 days, cell pellets were harvested by centrifugation at 3500 x g at 4 °C for 20 min, and flash frozen in liquid nitrogen prior to storage at −80 °C.
To purify the EGFR kinase domain, Sf9 cell pellets (~10 g) was thawed on ice and homogenized with 2 passages on an EmulsiFlex-C5 (Avestin) in 50 mL of lysis buffer (50 mM Tris pH 7.5, 600 mM NaCl, 1 mM EDTA, 1 mM TCEP, protease inhibitors, DNAase, and 10% Glycerol). The lysate was centrifugated and supernatant was collected and loaded onto a 1.0 mL HisTrap FF column (GE) at a flow rate of 1.0 ml/min. Following loading, the column was washed with 20 column volumes of wash buffer (50 mM Tris pH 7.5, 600 mM NaCl, 20 mM Imidazole, 1 mM TCEP, and 10% Glycerol) and eluted with a linear gradient of elution buffers containing 20 and 300 mM imidazole. Fractions containing the EGFR kinase domain proteins were combined and concentrated to less than 1.0 mL. The concentrated proteins were loaded onto a Superdex 200 10/300 GL column (GE) equilibrated in buffer (20 mM Tris pH 7.5, 100 mM NaCl) for further purification. The purified proteins were concentrated, flash frozen in liquid nitrogen, and stored at −80 °C.
MST experiments were carried out using a Monolith NT.115 pico instrument (NanoTemper Technologies, Munich Germany). […] Kd values were derived from the concentration-dependent changes in normalized fluorescence (Fnorm). Data were analyzed using NanoTemper MO. […]

[4] = tested on: PARP; test: PARP cleavage in tumor lysates (immunoblot); assay type: in vivo, mouse; conditions: tumor lysates at sacrifice; 10 μg/g IV 3X/week; vs cPTD4
Experimental: Lysates were prepared as described, protein concentrations determined by BCA assay (Pierce) and resolved via standard SDS-PAGE [18]. Gels were transferred to either PVDF (Immobilon P or Immobilon FL) membrane and probed with the indicated antibodies and analyzed by either HRP-linked secondaries (Pierce) or IRDye secondaries (Li-Cor), followed by development in Dura Signal (Pierce) or IR (Licor).
The transgenic mouse line WAP-TGFα (The Jackson Laboratory; Tg(WapTgfa)215Bri) were back crossed to C57BL/6 J background (N8). WAP-TGFα heterozygous males were bred with C57BL/6 J females to generate study animals and offspring were genotyped using primers against the WAP-TGFα transgene. WAP-TGFα heterozygous females were housed continuously with C57Bl/6 J males to induce pregnancy, resulting in transgene expression. […] To ensure randomized treatment arms we added mice to alternating treatment arms as they developed tumors, starting with the control cPTD4 arm. When a second mouse from the same litter developed a tumor, that animal was added to the opposite arm from its litter mate. The researchers were not blinded to the treatment arms. […] Once entered, mice were weighed, tumors measured, and injections given intravenously at 10 μg/g body weight 3x/week for 4 weeks. […]

T1 sequence (P00533 696-1022): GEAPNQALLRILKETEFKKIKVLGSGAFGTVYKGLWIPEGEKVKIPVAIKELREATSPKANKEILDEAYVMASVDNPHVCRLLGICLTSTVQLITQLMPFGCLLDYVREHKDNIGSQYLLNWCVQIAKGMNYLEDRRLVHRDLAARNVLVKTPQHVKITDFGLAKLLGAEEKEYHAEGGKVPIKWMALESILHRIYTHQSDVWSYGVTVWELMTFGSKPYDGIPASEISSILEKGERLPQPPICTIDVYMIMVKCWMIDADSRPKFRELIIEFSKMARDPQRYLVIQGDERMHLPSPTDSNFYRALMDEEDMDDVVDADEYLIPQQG

SMILES: CC[C@H](C)[C@H](NC(=O)[C@@H](NC(=O)[C@H](Cc1c[nH]cn1)NC(=O)[C@H](CC(N)=O)NC(=O)[C@H](CCCCN)NC(=O)[C@H](C)NC(=O)[C@H](CCCNC(=N)N)NC(=O)[C@H](C)NC(=O)[C@H](CCC(N)=O)NC(=O)[C@H](CCCNC(=N)N)NC(=O)[C@H](C)NC(=O)[C@H](C)NC(=O)[C@H](C)NC(=O)[C@H](CCCNC(=N)N)NC(=O)[C@H](C)NC(=O)[C@H](Cc1ccc(O)cc1)NC(C)=O)C(C)C)C(=O)N[C@@H](CCCCN)C(=O)N[C@@H](Cc1ccc(O)cc1)C(=O)N[C@@H](CC(C)C)C(=O)N[C@@H](CCC(=O)O)C(=O)N[C@H](C(=O)N[C@@H](CC(C)C)C(=O)N[C@@H](CC(C)C)C(=O)N[C@@H](Cc1ccc(O)cc1)C(=O)N[C@@H](CO)C(=O)N[C@@H](CCC(N)=O)C(=O)N[C@@H](CCC(N)=O)C(=O)N[C@@H](CCC(N)=O)C(=O)N[C@@H](CC(C)C)C(=O)N[C@@H](C)C(=O)N[C@@H](CCCCN)C(=O)N[C@@H](Cc1ccc(O)cc1)C(=O)N[C@@H](Cc1c[nH]c2ccccc12)C(=O)N[C@@H](CCC(=O)O)C(=O)N[C@@H](C)C(=O)N[C@@H](Cc1ccccc1)C(=O)N[C@@H](CC(C)C)C(N)=O)[C@@H](C)O [cSNX1.3]
- inhibition of cell survival compared with Sapitinib [1]: more effective than Sapitinib
- inhibition of cell survival compared with Sapitinib [2]: more effective than Sapitinib
- binding to the EGFR kinase domain [3]: directly bind the EGFR kinase domain
- PARP cleavage in remaining tumors [4]: increased PARP cleavage; also recorded: increase in cleaved PARP
